Article PMC5198786 (ChemMedChem, 2016)
Values joined by “and” are separate entries in the source; they are usually repeats but may differ in a detail not shown here. Equal values may be shown once. “Also recorded” adds a separate entry of the source. Read-outs that look alike come from different tables or passages of the source.

Legend:
B. pertussis ACT = B. pertussis ACT (Bordetella pertussis, UniProt P0DKX7); assay: cell-based; type: cell-based
mAC1 = mAC1 (Homo sapiens, UniProt Q08828); assay: mAC assay, HEK293 cells stably expressing AC1; type: cell-based; conditions: for % of control AC1 / effect on selectively-stimulated cAMP response at AC1 (in words): 30 µM; for % of control AC1: HEK293-AC1, stimulated with 3 µM A23187, ± S.E.M.
mAC2 = mAC2 (Homo sapiens, UniProt Q08462); assay: mAC assay, HEK293 cells stably expressing AC2; type: cell-based; conditions: for % of control AC2 / effect on selectively-stimulated cAMP response at AC2 (in words): 30 µM; for % of control AC2: HEK293-AC2, stimulated with 100 nM PMA, ± S.E.M.
mAC5 = mAC5 (Homo sapiens, UniProt O95622); assay: mAC assay, HEK293 cells stably expressing AC5; type: cell-based; conditions: for % of control AC5: 30 µM, HEK293-AC5, stimulated with 300 nM forskolin, ± S.E.M.
J774A.1 cells = assay: Effect on the viability of J774A.1 cells; type: cell-based, murine
edema factor (EF) = edema factor (EF) (Bacillus anthracis, UniProt P40136); assay: biochemical
[1] = read-out: IC50 ACT inhibition in J774A.1 cells

Chain of mAC1 (Q08828 whole entry): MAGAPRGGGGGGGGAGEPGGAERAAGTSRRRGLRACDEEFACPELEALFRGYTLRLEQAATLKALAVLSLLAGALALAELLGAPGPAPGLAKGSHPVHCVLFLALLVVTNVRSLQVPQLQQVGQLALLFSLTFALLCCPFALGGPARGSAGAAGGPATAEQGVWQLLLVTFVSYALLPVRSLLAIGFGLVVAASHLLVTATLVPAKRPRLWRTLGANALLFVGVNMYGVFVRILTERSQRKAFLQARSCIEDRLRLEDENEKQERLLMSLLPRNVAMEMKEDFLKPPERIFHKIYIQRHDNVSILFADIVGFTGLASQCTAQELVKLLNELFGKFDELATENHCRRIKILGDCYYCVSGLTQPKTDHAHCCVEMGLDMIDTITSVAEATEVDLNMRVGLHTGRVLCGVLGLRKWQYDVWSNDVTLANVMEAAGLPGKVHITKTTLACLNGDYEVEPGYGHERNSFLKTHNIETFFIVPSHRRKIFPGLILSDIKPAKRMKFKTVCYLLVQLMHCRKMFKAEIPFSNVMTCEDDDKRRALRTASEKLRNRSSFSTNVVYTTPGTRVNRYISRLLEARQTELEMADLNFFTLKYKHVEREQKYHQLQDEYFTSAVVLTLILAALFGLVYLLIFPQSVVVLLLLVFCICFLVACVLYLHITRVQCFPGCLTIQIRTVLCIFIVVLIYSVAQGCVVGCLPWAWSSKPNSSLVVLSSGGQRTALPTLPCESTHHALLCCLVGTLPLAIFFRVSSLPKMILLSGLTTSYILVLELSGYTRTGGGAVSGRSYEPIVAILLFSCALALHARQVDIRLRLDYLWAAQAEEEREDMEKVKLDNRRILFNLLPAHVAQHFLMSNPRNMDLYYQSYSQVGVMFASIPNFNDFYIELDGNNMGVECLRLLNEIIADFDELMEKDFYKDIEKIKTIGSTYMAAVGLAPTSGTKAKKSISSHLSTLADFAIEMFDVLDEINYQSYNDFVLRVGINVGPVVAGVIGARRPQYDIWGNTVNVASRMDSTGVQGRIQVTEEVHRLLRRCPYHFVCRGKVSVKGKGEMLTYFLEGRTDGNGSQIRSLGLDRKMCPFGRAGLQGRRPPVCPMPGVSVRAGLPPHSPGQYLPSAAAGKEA
Chain of mAC5 (O95622 whole entry): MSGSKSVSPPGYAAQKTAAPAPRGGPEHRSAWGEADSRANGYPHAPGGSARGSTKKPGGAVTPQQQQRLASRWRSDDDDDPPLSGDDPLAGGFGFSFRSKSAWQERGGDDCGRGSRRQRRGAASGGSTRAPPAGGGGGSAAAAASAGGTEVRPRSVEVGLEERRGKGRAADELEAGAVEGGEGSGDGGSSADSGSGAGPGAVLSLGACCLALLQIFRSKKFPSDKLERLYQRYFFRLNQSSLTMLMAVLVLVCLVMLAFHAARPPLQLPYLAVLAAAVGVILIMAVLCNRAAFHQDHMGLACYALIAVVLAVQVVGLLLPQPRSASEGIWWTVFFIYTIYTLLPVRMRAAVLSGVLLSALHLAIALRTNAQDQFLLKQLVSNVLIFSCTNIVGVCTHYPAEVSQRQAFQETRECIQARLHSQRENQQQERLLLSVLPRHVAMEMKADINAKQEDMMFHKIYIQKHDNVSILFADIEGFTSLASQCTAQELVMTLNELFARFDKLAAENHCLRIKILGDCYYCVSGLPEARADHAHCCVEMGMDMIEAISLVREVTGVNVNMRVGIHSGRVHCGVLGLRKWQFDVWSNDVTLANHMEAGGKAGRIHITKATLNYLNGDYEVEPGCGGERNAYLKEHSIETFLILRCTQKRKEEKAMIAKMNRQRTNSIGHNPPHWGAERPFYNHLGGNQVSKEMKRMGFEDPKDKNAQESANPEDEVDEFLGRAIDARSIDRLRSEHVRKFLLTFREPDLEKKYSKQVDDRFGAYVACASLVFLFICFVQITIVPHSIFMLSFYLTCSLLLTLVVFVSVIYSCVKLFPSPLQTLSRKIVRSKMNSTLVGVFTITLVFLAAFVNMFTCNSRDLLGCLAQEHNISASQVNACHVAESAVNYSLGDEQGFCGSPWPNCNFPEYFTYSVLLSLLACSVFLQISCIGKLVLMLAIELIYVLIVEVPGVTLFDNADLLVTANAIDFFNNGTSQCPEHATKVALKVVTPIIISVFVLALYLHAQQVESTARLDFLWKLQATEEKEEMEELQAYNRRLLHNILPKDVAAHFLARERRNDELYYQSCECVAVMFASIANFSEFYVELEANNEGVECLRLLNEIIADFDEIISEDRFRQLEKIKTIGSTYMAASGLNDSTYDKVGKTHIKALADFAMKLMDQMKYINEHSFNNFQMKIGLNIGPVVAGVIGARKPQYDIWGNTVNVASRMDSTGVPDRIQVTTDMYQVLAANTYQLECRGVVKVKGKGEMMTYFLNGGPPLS
Chain of mAC2 (Q08462 whole entry): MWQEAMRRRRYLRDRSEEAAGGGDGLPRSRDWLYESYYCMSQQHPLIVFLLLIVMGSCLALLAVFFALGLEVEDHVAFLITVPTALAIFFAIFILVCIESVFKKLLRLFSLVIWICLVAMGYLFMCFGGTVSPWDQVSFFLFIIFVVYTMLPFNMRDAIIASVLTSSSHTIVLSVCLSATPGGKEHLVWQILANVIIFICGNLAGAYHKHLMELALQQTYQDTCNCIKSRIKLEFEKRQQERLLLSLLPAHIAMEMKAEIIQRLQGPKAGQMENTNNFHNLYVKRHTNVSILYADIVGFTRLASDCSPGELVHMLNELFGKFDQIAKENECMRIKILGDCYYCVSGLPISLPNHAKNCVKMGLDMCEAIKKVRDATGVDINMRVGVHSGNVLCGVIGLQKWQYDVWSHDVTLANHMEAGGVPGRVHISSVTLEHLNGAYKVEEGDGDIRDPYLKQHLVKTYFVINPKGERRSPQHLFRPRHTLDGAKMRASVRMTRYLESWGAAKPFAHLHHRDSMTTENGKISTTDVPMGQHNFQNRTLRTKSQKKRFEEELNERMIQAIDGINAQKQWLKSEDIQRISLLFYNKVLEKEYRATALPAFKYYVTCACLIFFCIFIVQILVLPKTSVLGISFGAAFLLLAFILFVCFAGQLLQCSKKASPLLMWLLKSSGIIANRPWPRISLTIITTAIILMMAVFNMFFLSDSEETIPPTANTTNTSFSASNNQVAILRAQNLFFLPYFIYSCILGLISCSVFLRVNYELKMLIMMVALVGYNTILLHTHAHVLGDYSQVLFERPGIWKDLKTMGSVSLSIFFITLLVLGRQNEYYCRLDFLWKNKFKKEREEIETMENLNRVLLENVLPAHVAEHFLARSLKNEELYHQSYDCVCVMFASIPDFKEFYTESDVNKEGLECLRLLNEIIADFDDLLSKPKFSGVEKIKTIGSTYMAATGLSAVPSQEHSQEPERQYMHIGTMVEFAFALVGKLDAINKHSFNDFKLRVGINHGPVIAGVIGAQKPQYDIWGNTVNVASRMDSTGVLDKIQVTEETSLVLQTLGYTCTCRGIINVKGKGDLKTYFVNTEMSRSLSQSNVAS
Chain of edema factor (EF) (P40136 whole entry, looked up): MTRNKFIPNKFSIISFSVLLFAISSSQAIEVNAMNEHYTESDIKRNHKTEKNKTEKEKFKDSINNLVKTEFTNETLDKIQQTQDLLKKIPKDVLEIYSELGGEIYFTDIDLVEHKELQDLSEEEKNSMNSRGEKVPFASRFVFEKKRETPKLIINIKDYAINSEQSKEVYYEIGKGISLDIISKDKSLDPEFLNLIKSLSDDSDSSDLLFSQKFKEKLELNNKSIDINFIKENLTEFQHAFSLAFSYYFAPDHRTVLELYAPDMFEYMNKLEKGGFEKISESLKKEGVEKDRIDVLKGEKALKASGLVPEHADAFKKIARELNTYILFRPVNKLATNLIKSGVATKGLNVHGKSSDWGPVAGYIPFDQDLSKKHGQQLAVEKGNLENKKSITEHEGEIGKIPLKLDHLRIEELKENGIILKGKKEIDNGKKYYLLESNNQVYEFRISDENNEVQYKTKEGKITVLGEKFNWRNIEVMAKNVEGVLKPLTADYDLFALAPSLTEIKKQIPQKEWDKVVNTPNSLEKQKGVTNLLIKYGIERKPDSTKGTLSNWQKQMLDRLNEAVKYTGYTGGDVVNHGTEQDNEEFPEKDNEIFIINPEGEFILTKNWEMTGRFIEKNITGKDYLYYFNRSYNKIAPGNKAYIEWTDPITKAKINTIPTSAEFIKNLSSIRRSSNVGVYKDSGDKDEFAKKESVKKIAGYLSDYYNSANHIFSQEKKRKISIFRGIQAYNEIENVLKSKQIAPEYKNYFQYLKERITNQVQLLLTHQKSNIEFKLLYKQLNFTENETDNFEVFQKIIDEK

Compound	IC50 (B. pertussis ACT; [1])	% of control AC1 (mAC1)	% of control AC2 (mAC2)	% of control AC5 (mAC5)	other results
Nc1ccc(Cl)cc1C(=O)NC(CO)Cn1cnc2c(N)ncnc21 (stereo not shown) [Compound 6]	> 15 µM	163±34%	161±16%	98±14%	
Nc1ncnc2c1ncn2CC(CO)NC(=O)Nc1ccc(Cl)cc1C(=O)O (stereo not shown) [Compound 7, 2-(3-(1-(6-amino-9H-purin-9-yl)-3-hydroxypropan-2-yl)ureido)-5-chlorobenzoic acid]					IC50 (B. pertussis ACT): > 15 µM; remaining activity at 30 µM (mAC1; HEK293, read-out: % of control AC1): 178 ± 31%; remaining activity at 30 µM (mAC2; HEK293, read-out: % of control AC2): 164 ± 23%; remaining activity at 30 µM (mAC5; HEK293, read-out: % of control AC5): 110 ± 16%
CC(C)OC(=O)[C@H](Cc1ccccc1)NP(=O)(COCC(Cn1cnc2c(N)ncnc21)NC(=O)c1cc(Cl)ccc1N)N[C@@H](Cc1ccccc1)C(=O)OC(C)C (stereo partly drawn) [Compound 14, Bis(L-phenylalanineisopropyl ester) prodrug of ((3-(6-amino-9H-purin-9yl)-2-N-(5-chloroanthraniloyl)propoxy)methyl)phosphonic acid]	> 15 µM	118±12%	172±34%	121±23%	effect on selectively-stimulated cAMP response at AC1 (in words) (mAC1): slightly potentiated; effect on selectively-stimulated cAMP response at AC2 (in words) (mAC2): slightly potentiated
Nc1ccc(Cl)cc1C(=O)OCC(CO)Cn1cnc2c(N)ncnc21 (stereo not shown) [Compound 20, 9-(3-O-(5-Chloroanthraniloyl)-2-(hydroxymethyl)propyl)adenine]	> 15 µM	122±15%	146±10%	114±18%	
Nc1ccc(Cl)cc1C(=O)NCC(CO)Cn1cnc2c(N)ncnc21 (stereo not shown) [Compound 22, 9-(3-N-(5-Chloroanthraniloyl)-2-(hydroxymethyl)propyl)adenine]	> 15 µM	156±23%	149±26%	101±5%	
CC(C)OC(=O)[C@H](Cc1ccccc1)NP(=O)(COCC(COC(=O)c1cc(Cl)ccc1N)Cn1cnc2c(N)ncnc21)N[C@@H](Cc1ccccc1)C(=O)OC(C)C (stereo partly drawn) [Compound 26, Bis(L-phenylalanineisopropyl ester) prodrug of ((3-(6-amino-9H-purin-9yl)-2-(5-chloroanthraniloyloxymethyl)propoxy)methyl)phosphonic acid]	12 µM and 12.1 µM	94±10%	149±27%	97±11%	cytotoxic effect in J774A.1 cells (J774A.1 cells; 10 µM for 5h): no cytotoxic effect; also recorded: no observed cytotoxic effects; Viability (J774A.1 cells; 10 µM, 5 h, versus untreated control): 110%
CC(C)OC(=O)[C@H](Cc1ccccc1)NP(=O)(COCC(CNC(=O)c1cc(Cl)ccc1N)Cn1cnc2c(N)ncnc21)N[C@@H](Cc1ccccc1)C(=O)OC(C)C (stereo partly drawn) [Compound 29, Bis(L-phenylalanineisopropyl ester) prodrug of ((3-(6-amino-9H-purin-9yl)-2-(5-chloroanthraniloylaminomethyl)propoxy)methyl)phosphonic acid]	> 15 µM	189±15%	193±48%	118±18%	effect on selectively-stimulated cAMP response at AC1 (in words) (mAC1): slightly potentiated; effect on selectively-stimulated cAMP response at AC2 (in words) (mAC2): slightly potentiated
Nc1ncnc2c1ncn2CCOCP(=O)(O)OP(=O)(O)OP(=O)(O)O [PMEApp, Adefovir diphosphate]					IC50 (edema factor (EF)): 0.0115 ± 0.0026 µM
Nc1ncnc2c1ncn2C1CCCO1 (stereo not shown) [SQ22536, reference compound]			84±5%	64±1%	
